According to publication PMC4121658 (Anesthesiology, 2014):

Experiments:
[1] = test system: rats; assay: Lethality after intravenous bolus injection; format: in vivo, Sprague-Dawley rats; settings: for rats died: intravenous bolus; for Therapeutic Index: LD50/Hypnotic ED50, rats
[2] = Lethality after intravenous bolus injection; format: in vivo, Sprague-Dawley rats; settings: Sprague-Dawley, rat, in vivo, iv
[3] = test system: rats; settings: larger number of Sprague Dawley rats; cited from earlier work
[4] = target: α1(L264T)β1γ2L GABAA receptors (Homo sapiens, UniProt P14867+P18505, L291T); format: cell-based; settings: for Surge current amplitude, of the directly activated peak current: 1000 μM drug, upon washout, α1(L264T)β1γ2L
[5] = test system: adrenocortical function; assay: ACTH1–24 stimulation test, in vivo adrenocortical inhibitory potency; design: species or system Sprague-Dawley rats; settings: Adrenocortical ID50/Hypnotic ED50, rats
[6] = target: α1(L264T)β3γ2L GABAA receptors (Homo sapiens, UniProt P14867+P28472, L291T); assay: cell-based; format: cell-based; settings: for Surge current amplitude, of the directly activated peak current: 1000 μM drug, upon washout, α1(L264T)β3γ2L; for Subunit Selectivity Ratio: EC50 β1 subunit/EC50 β3 subunit, ± SD by error propagation
Chain of α1(L264T)β3γ2L GABAA receptors (P14867 28-456 L291T): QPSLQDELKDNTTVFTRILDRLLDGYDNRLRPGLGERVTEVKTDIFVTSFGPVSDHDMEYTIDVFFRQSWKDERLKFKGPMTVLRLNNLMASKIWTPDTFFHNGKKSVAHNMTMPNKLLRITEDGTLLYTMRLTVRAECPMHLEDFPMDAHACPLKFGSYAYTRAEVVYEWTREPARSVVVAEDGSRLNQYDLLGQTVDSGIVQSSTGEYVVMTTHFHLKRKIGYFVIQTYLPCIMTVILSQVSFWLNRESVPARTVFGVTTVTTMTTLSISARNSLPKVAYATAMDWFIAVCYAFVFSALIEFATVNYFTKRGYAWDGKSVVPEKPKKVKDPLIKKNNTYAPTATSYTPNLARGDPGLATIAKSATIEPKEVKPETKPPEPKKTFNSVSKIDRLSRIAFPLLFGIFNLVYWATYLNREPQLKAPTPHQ
Chain of α1(L264T)β3γ2L GABAA receptors (P28472 26-473): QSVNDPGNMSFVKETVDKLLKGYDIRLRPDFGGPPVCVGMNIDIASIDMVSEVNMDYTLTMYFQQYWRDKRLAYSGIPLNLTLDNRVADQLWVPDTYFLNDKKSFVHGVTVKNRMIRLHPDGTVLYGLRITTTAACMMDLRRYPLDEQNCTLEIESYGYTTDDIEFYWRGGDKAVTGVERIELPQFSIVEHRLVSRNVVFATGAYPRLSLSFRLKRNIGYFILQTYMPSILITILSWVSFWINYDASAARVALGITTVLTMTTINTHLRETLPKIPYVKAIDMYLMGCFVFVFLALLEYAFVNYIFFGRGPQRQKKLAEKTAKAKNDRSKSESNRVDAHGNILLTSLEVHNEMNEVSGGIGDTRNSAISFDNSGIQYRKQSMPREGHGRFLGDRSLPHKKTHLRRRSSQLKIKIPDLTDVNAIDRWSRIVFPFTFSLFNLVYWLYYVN
Chain of α1(L264T)β3γ2L GABAA receptors (P18507 40-475 partner): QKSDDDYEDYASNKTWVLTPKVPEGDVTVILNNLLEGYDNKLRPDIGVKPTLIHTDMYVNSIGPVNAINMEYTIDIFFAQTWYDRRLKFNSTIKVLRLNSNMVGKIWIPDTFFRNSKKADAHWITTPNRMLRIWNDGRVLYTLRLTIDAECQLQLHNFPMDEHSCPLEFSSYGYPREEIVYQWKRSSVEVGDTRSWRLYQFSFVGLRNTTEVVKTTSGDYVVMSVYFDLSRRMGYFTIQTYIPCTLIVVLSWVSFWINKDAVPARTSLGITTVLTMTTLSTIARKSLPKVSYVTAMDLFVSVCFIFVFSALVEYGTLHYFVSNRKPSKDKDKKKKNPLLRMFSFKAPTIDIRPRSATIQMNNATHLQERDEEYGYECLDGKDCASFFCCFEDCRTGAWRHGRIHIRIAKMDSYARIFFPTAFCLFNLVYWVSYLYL

Chain of α1(L264T)β1γ2L GABAA receptors (P14867 28-456 L291T): as the sequence (P14867 28-456 L291T) above
Chain of α1(L264T)β1γ2L GABAA receptors (P18505 26-474): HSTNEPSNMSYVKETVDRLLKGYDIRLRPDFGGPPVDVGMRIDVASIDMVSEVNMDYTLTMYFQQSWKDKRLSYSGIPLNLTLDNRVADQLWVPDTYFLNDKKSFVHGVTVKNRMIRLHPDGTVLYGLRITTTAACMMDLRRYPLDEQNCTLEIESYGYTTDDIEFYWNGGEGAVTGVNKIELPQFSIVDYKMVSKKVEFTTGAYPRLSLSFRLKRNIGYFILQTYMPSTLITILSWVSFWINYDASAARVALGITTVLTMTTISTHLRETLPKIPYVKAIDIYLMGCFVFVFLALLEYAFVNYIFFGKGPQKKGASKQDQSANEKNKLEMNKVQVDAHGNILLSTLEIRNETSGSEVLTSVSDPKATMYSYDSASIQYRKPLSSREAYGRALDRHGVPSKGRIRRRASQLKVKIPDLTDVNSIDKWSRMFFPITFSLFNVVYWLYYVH
Chain of α1(L264T)β1γ2L GABAA receptors (P18507 40-475 partner): as the sequence (P18507 40-475 partner) above

Structure (SMILES)	rats died ([1]; 30 mg/kg dose)	LD50 [2] [mg/kg]	LD50, previously reported value [3] [mg/kg]	rats died ([1]; 20 mg/kg dose)	LD50 ([2]; 20 mg/kg) [mg/kg]	EC50 [4] [µM]	Surge current amplitude, of the directly activated peak current [4] [%]	Adrenocortical Toxicity Index [5]	EC50 [6] [µM]	Surge current amplitude, of the directly activated peak current [6] [%]	Subunit Selectivity Ratio [6]	rats died ([1]; 50 mg/kg dose)	Therapeutic Index [1]
CCOC(=O)c1cncn1[C@@H](C)c1ccccc1 [S-etomidate, S-ethyl 1-(1-phenylethyl)-1H-imidazole-5-carboxylate, reference compound]	3/3	25											
CCOC(=O)c1cncn1[C@H](C)c1ccccc1 [R-etomidate, R-ethyl 1-(1-phenylethyl)-1H-imidazole-5-carboxylate, reference compound]		15	20.4	1/2	20								
CCOC(=O)c1cncn1C1(c2ccccc2)CC1 [cyclopropyl etomidate, ethyl 1-(1-phenylcyclopropyl)-1H-imidazole-5-carboxylate]		50				1590 ± 140	73.0 ± 38.5	0.38 ± 0.08	67.6 ± 8.1	61.5 ± 6.9	23.5 ± 3.5	2/4	10
CCOC(=O)c1cncn1Cc1ccccc1 [dihydrogen etomidate, ethyl 1-benzyl-1H-imidazole-5-carboxylate]		40				400 ± 28	3 ± 2	0.52 ± 0.12	161 ± 13	3 ± 2	2.48 ± 0.27	3/3	8
CC(C)c1cccc(C(C)C)c1O [propofol, reference compound]									7.58 ± 0.83				
